Reference: patent US4323550A, “Halogenohydrates of N,N-disubstituted derivatives of piperazine having anticariogenic properties” (priority 1976, dated 1982)

Legend:
Solubility = type: physicochemical
mice = test: Acute oral toxicity in mice; type: in vivo; settings: mouse
Method: (§1) By way of example there are described below the comparative tests made on difluorohydrate of N,N'-di(hydroxyethyl) piperazine and on fluorohydrate of hexadecylamine or "ELMEX 242".
(§2) The acute toxidity was studies in rats and in mice.
(§3) The animals came from a homogeneous breed. The mice weighed between 19 and 21 g and the rats weighed from 120 to 140 g. The mice were grouped in lots of 10 and the rats in lots of 8.
(§4) The administrations took place orally at a volume of 0.5 ml per 20 g of mouse and 1 ml per 100 g of rat. The LD50 was determined by the method of Lichfield and Wilcoxon.
(§5) As regards the difluorohydrate of N,N'-di(hydroxyethyl) piperazine, the administered solution was prepared by diluting the mother solution to 65.4%, the dilutions being made after having weighed this solution. The administered dose is expressed by weight, taking account of the indicated strength of this solution.
(§6) For the solid "ELMEX 242" an aqueous suspension was prepared with the aid of solubilizing agents (e.g. Tween-polyoxyethylene sorbitan monolaurate). A very thick suspension is then obtained which tends to foam heavily, is difficult to get into the esophageal sound, and the determination of its volume is rendered difficult by the foam.
(§7) The results obtained with the "ELMEX" are therefore rather approximate.

[1] = Acute oral toxicity in mice; type: in vivo; settings: in vivo, mouse, Lichfield and Wilcoxon
Method: as §1, §2, §3, §4, §5, §6, §7

rats = test: in vivo; type: in vivo; settings: rat, oral; for Deaths: D + 10, 8 per lot
Method: as §1, §2, §3, §4, §5, §6, §7

[2] = Penetration of fluorine 18 into dental enamel after topical application (Muhlemann biopsy); set-up: species or system children
Description: The anticariogenic activity of the difluorohydrate of N,N'-di(hydroxy-ethyl) piperazine has been evidenced by comparison with sodium fluoride known for its cariopreventive topical properties. A comparative study has been made of the penetration into the dental enamel of the fluorine contained in the molecule according to the invention and of the fluorine contained in sodium fluoride.
For this comparison the difluorohydrate of N,N'-di(hydroxy-ethyl) piperazine was marked at the fluorine 18, by isotopic exchange by dissolving some crystals of the product according to the invention in a solution of pure fluorine 18 without entrainer. The same was done for the sodium fluoride.
The study of the penetration of the fluorine into the enamel was made on several teeth to compare the behavior of the product of the invention and of sodium fluoride in supplying fluorine and in the penetration of the latter into the deepest layers of the dental tissue.
The tests were performed on 30 premolar teeth taken from normal children 9 to 11 years old. Eighteen teeth were treated by topical application of the radioactive solutions of the difluoro-hydrate of N,N'-di(hydroxy-ethyl) piperazine or of NaF adjusted to pH=3.5; the other 12 were treated with the same solutions adjusted to a pH of 7.4.
The radioactive solutions are obtained by dissolving 69 mg of the difluorohydrate and 81.3 mg of NaF, respectively, in 1 and 3 ml of fluorine 18 solution without entrainer. Thus solutions titering 1.23% fluorine are obtained.
As the difluorohydrate solution is already at pH=3.5, it is sufficient to acidify the NaF solution by addition of about 0.2 ml hydrochloric acid 6 M, to 3 ml of the radioactive solution.
In this case, the difluorohydrate's nature of organic salt can be preserved and its solution neutralized at 1.23% of fluorine in 1 ml by addition of about 110 mg of its N,N'-di(hydroxyethyl) piperazine base.
For the experimentation one determines two enamel plagues on each tooth. For this, one applies on the crowns, separated from each other by 2 or 3 mm, two round disks of a diameter of 3 mm cut out from adhesive tape. The crown is then covered with a layer of impermeable varnish. When the varnish is dry, the patches of adhesive tape are removed, thus bearing the two zones of enamel to be treated.
The spot application of the fluorinated solution is done by means of a sponge imbibed with 0.5 ml of the solution. This sponge is inserted in a polyethylene tube to limit the surface of contact between tooth and sponge to the circumference of the enamel zone treated.
The sampling of the enamel is done by Muhlemann's biopsy technique: A patch of blotting paper impregnated with 4 microliters of perchloric acid 2 M is applied on the trated enamel for 30 seconds. The enamel is dried with a second patch of blotting paper. It is on these patches which contain the dissolved enamel that we measure the radioactivity.
There are given in Table I all the results relating to the acid treatment, in Table II all the results relating to the treatment at neutral pH. The fluorine values are those obtained by measuring the radioactivity of the samples.
The columns […] and N2 represent the mass of fluorine measured on the second biopsy.
We have marked R1 and R1 and R2 the ratios G1 /G2 and N1 /N2, and R3 the ratio. [formula] R1 and R2 permitting to compare the quantities of fluorine at the same depth. R3 permits comparing the accumulation of fluorine in the tooth.

Question: With `OCCN1CCN(CCO)CC1` [DI-IODOHYDRATE OF N,N'-DI-(BETA-HYDROXY-ETHYL) PIPERAZINE] as the molecule, how does the “solubility in water, in alcohols, glycols” value (Solubility) read?
Answer: The value was “soluble”.

Question: For `CCCCCCCCCCCCCCCCN` [ELMEX 242, fluorohydrate of hexadecylamine], which “course: death and recovery” value (mice) is on record?
Answer: Its value is “Death occurs in a few hours; for others recovery is also fairly rapid”.

Question: What about the symptoms (mice) of the same molecule?
Answer: Its symptoms is “The animals have diarrhea. The mice are totally immobile and tremble”.

Question: What about the Deaths (mice; 600 mg/kg, D + 1, 10 per lot) of the same molecule?
Answer: The Deaths was 0.

Question: What about the Deaths (mice; 600 mg/kg, D + 2, 10 per lot) of the same molecule?
Answer: Its Deaths is 0.

Question: And the Deaths (mice; 600 mg/kg, D + 5, 10 per lot)?
Answer: The Deaths was 0.

Question: What about the Deaths (mice; 600 mg/kg, D + 10, 10 per lot) of the same molecule?
Answer: The Deaths was 0.

Question: And the Deaths (mice; 800 mg/kg, D + 1, 10 per lot)?
Answer: The Deaths was 0.

Question: And the Deaths (mice; 800 mg/kg, D + 2, 10 per lot)?
Answer: The Deaths was 0.

Question: What about the Deaths (mice; 800 mg/kg, D + 5, 10 per lot) of the same molecule?
Answer: Its Deaths is 0.

Question: And the Deaths (mice; 800 mg/kg, D + 10, 10 per lot)?
Answer: The Deaths was 0.

Question: And the Deaths (mice; 1000 mg/kg, D + 1, 10 per lot)?
Answer: The Deaths was 1.

Question: And the Deaths (mice; 1000 mg/kg, D + 2, 10 per lot)?
Answer: Its Deaths is 2.

Question: What about the Deaths (mice; 1000 mg/kg, D + 5, 10 per lot) of the same molecule?
Answer: The Deaths was 2.

Question: What about the Deaths (mice; 1000 mg/kg, D + 10, 10 per lot) of the same molecule?
Answer: Its Deaths is 2.

Question: And the Deaths (mice; 1250 mg/kg, D + 1, 10 per lot)?
Answer: Its Deaths is 1.

Question: And the Deaths (mice; 1250 mg/kg, D + 2, 10 per lot)?
Answer: Its Deaths is 2.

Question: And the Deaths (mice; 1250 mg/kg, D + 5, 10 per lot)?
Answer: The Deaths was 3.

Question: And the Deaths (mice; 1250 mg/kg, D + 10, 10 per lot)?
Answer: The Deaths was 3.

Question: What about the Deaths (mice; 1500 mg/kg, D + 1, 10 per lot) of the same molecule?
Answer: Its Deaths is 4.

Question: And the Deaths (mice; 1500 mg/kg, D + 2, 10 per lot)?
Answer: Its Deaths is 7.

Question: What about the Deaths (mice; 1500 mg/kg, D + 5, 10 per lot) of the same molecule?
Answer: The Deaths was 9.

Question: What about the Deaths (mice; 1500 mg/kg, D + 10, 10 per lot) of the same molecule?
Answer: Its Deaths is 9.

Question: What about the Deaths (mice; 1750 mg/kg, D + 1, 10 per lot) of the same molecule?
Answer: The Deaths was 3.

Question: And the Deaths (mice; 1750 mg/kg, D + 2, 10 per lot)?
Answer: Its Deaths is 4.

Question: What about the Deaths (mice; 1750 mg/kg, D + 5, 10 per lot) of the same molecule?
Answer: Its Deaths is 9.

Question: And the Deaths (mice; 1750 mg/kg, D + 10, 10 per lot)?
Answer: The Deaths was 9.

Question: And the Deaths (mice; 2000 mg/kg, D + 1, 10 per lot)?
Answer: The Deaths was 9.

Question: And the Deaths (mice; 2000 mg/kg, D + 2, 10 per lot)?
Answer: Its Deaths is 10.

Question: And the Deaths (mice; 2000 mg/kg, D + 5, 10 per lot)?
Answer: The Deaths was 10.

Question: What about the Deaths (mice; 2000 mg/kg, D + 10, 10 per lot) of the same molecule?
Answer: The Deaths was 10.

Question: What about the Deaths (mice; 2500 mg/kg, D + 1, 10 per lot) of the same molecule?
Answer: Its Deaths is 10.

Question: And the Deaths (mice; 2500 mg/kg, D + 2, 10 per lot)?
Answer: The Deaths was 10.

Question: And the Deaths (mice; 2500 mg/kg, D + 5, 10 per lot)?
Answer: Its Deaths is 10.

Question: What about the Deaths (mice; 2500 mg/kg, D + 10, 10 per lot) of the same molecule?
Answer: Its Deaths is 10.

Question: What about the LD50 at 240 h [1] of the same molecule?
Answer: Its LD50 at 240 h is 1250 mg/kg.

Question: And the symptoms / behavior (rats)?
Answer: The symptoms / behavior was “The behavior of the animals is normal”.

Question: And the Deaths (rats; 125 mg/kg)?
Answer: Its Deaths is 0.

Question: And the Deaths (rats; 150 mg/kg)?
Answer: The Deaths was 0.

Question: What about the Deaths (rats; 500 mg/kg) of the same molecule?
Answer: Its Deaths is 0.

Question: Which “mean value of R2” value ([2]; neutral medium, 12 teeth) does the source give for `[F-].[Na+]` [NaF, sodium fluoride, reference compound] here?
Answer: Its value is 3.6.

Question: And the “average fluorine sampled in the two biopsies, acid pH compared with neutral pH” value ([2]; pH 3.5 versus pH 7.4)?
Answer: The value was 3.6.
